Assays:
Type in all cases: functional
[Chlorella] fusca [1] = Antimicrobial activity against Chlorella fusca at 8 mg/ml; conditions: Scenedesmus fuscus; read-out: IZ
[Chlorella] fusca [2] = Antimicrobial activity against Chlorella fusca at 2 mg/ml; conditions: Scenedesmus fuscus; read-out: IZ
[Chlorella] fusca [3] = Antimicrobial activity against Chlorella fusca at 1 mg/ml; conditions: Scenedesmus fuscus; read-out: IZ
Priestia megaterium [4] = test: Antimicrobial activity against Bacillus megaterium 1mg/ml
Microbotryum violaceum [5] = test: Antimicrobial activity against Microbotryum violaceum 1 mg/ml
Priestia megaterium [6] = test: Antimicrobial activity against Bacillus megaterium 5 mg/ml
[Chlorella] fusca [7] = Antimicrobial activity against Chlorella fusca at 5 mg/ml; conditions: Scenedesmus fuscus; read-out: IZ
Microbotryum violaceum [8] = test: Antimicrobial activity against Microbotryum violaceum 5 mg/ml

Row | SMILES | zone of inhibition at 8000 µg/mL ([Chlorella] fusca [1]) [mm] | zone of inhibition at 2000 µg/mL ([Chlorella] fusca [2]) [mm] | zone of inhibition at 1000 µg/mL ([Chlorella] fusca [3]) [mm] | inhibition zone (IZ) (Priestia megaterium [4]) [mm] | inhibition zone (IZ) (Microbotryum violaceum [5]) [mm] | inhibition zone (IZ) (Priestia megaterium [6]) [mm] | zone of inhibition at 5000 µg/mL ([Chlorella] fusca [7]) [mm] | inhibition zone (IZ) (Microbotryum violaceum [8]) [mm]
1 | Cc1ccc2c3c1COC[C@@]3(C)[C@H](O)C2(C)C | 5 | 5 | – | – | – | – | – | –
2 | C[C@@H]1C[C@H](O)[C@@H]2C3=C1[C@@H](O)OC[C@@]3(C)[C@H](O)C2(C)C | 7 | 0 | – | – | – | – | – | –
3 | C[C@@H]1CC=C2[C@@H]3[C@H]1CC(O)[C@@]3(C=O)CC2(C)C (some centres not stated) | – | – | 0 | 0 | 0 | 0 | 10 | 0
4 | CCO[C@H]1OC[C@]2(C)c3c(ccc(C)c31)C(C)(C)[C@H]2O | 6 | 5 | – | – | – | – | – | –
5 | Cc1ccc2c3c1C(=O)OC[C@@]3(C)[C@H](O)C2(C)C | – | – | 0 | 0 | 0 | 6 | 8 | 0
6 | CO[C@H]1OC[C@@]2(C)[C@H](OC(C)=O)C(C)(C)[C@@H]3[C@@H](OC(C)=O)C[C@@H](C)[C@H]1[C@@]32O | – | – | 0 | 0 | 0 | 0 | 0 | 0
7 | C[C@@H]1C[C@H](O)[C@@H]2C(=C1C=O)[C@@](C)(CO)[C@H](O)C2(C)C | 6 | 0 | – | – | – | – | – | –
8 | C[C@@H]1CCC2=C3C1=COC[C@@]3(C)[C@H](O)C2(C)C | – | – | 0 | 0 | 0 | 0 | 6 | 5
9 | C[C@@H]1C[C@H](O)C2=C3C1=COC[C@@]3(C)[C@H](O)C2(C)C | – | – | 0 | 0 | 0 | 0 | 7 | 5
10 | Cc1ccc2c3c1[C@@H](O)OC[C@@]3(C)[C@H](O)C2(C)C | – | – | 0 | 0 | 0 | 6 | 12 | 6
11 | CO[C@H]1OC[C@]2(C)c3c(ccc(C)c31)C(C)(C)[C@H]2O | – | – | 0 | 0 | 0 | 6 | 6 | 8
12 | C[C@@H]1C[C@H](O)[C@H]2C(C)(C)C[C@]3(C)CO[C@H](O)[C@@H]1[C@@]23O | – | – | 0 | 0 | 0 | 0 | 0 | 0
13 | CO[C@H]1OC[C@@]2(C)[C@H](O)C(C)(C)[C@@H]3[C@@H](O)C[C@@H](C)[C@H]1[C@@]32O | – | – | 0 | 0 | 0 | 0 | 0 | 0

— ChEMBL document CHEMBL1158707, “Botryane metabolites from the fungus Geniculosporium sp. isolated from the marine red alga Polysiphonia” (2005)
